Like-named read-outs stand apart in the source and are kept apart here.
Legend:
Escherichia coli = assay: Wood preservative efficacy against bacteria and yeasts, tryptose agar plates; assay type: cell-based; set-up: key: 0 = growth equal to control, 1 = growth inhibited, 2 = no growth
Description: (§1) Compositions were prepared by dissolving the compounds shown in Table 1 in 50% ethanol and further diluting with sterile distilled water. […] After cooling, the medium was inoculated with the bacteria listed below. After sufficient growth of the untreated cultures, the compounds were evaluated using the following rating system: 0=growth equal to control 1=inhibition of growth by the compound 2=no growth under the influence of the compound. In this Table, the higher numbers are the most preferred species. Escherichia coli (gram pos)

Streptomyces albus = assay: as above; assay type: cell-based; set-up: key: 0 = growth equal to control, 1 = inhibition, 2 = no growth
Description: as §1, with “Streptomyces albus” for “Escherichia coli”

Pseudomonas alcaligenes = assay: as above; assay type: cell-based; set-up: key: 0 = growth equal to control, 1 = inhibition, 2 = no growth; conditions: 100 ppm in tryptose agar
Description: as §1, with “Pseudomonas alcaligenes” for “Escherichia coli”, “neg)” for “pos)”

Coriolus versicolor [1] = assay: Wood preservative efficacy against fungi, agar plate colony diameter; assay type: cell-based; conditions: for Score of fungicidal activity, G. VERSICLOR: Table 6B; for Score of fungicidal activity, C. VERSICLOR: Test dosage 10 ppm, Table 6A
Description: (§2) Each plate was inoculated with a spore suspension or with a small piece of agar (1 mm) from the margin of an actively growing colony of the test fungus. The fungi employed are listed below. After incubation at 22° C. and 70% relative humidity during a period long enough to allow significant growth of untreated controls, the diameters of the fungus colonies were measured and scored using the following rating system: 0=free of fungal growth 1=25% of fungal growth compared to untreated 2=50% of fungal growth compared to untreated 3=75% of fungal growth compared to untreated 4=Growth equal to that of untreated The scores measured for wood preservation efficacy of the compounds of this invention are listed in Tables 6a and 6b. In these Tables, the lower numbers are the most preferred species. Coriolus versicolor

Bacillus cereus mycoides = assay type: cell-based; set-up: scale not given here
Cladosporium resinae = assay: Wood preservative efficacy against fungi, agar plate colony diameter; assay type: cell-based
Description: as §2, with “Cladosporium resinae (syn Hormonocanis resinae, Amorphotheca resinae)” for “Coriolus versicolor”

Coniophora puteana [2] = assay: as above; assay type: cell-based; set-up: key: 0 = no fungal growth, 1-3 = 25/50/75% of untreated, 4 = equal
Description: as §2, with “Coniophora puteana (syn. C. cerebella)” for “Coriolus versicolor”

Coriolus versicolor [3] = assay: Activity against wood-rotting fungi, weight loss of impregnated wood blocks; conditions: eight weeks at 22° C. and 70% relative humidity
Description: (§3) Sapwood blocks (50×20×6 mm) of Scots pine (Pinus sylvestris) and beech (Fagus sylvatica) were oven-dried at 104° C. The blocks were cooled, weighed, and impregnated with the test compound, by a vacuum treatment. Each concentration of the test compounds was applied to 7 replicates. By reweighing after each treatment, the uptake of active ingredient was calculated. Badly treated wood was discarded. For fixation of the active compound, the treated blocks were kept in a closed container for two weeks. The container was opened and the wood was dried for two more weeks. The test blocks were sterilized by gamma-irradiation (1.2 Mrad). Each treated block was placed on a mesh in an inoculated Petri dishes of malt agar, with an untreated (control) block. All the blocks were exposed to fungal attack for eight weeks at 22° C. and 70% relative humidity. At the end of the incubation period, the blocks were freed from adhering mycelium, oven dried at 104° C., allowed to cool, and weighed. The percentage weight loss of each block was calculated. Invalid results, due to waterlogging or insufficient moisture content, were not taken into account. The average weight loss of the treated blocks compared to the control blocks appears in Table 8.

Coniophora puteana [4] = assay: as above; conditions: eight weeks at 22° C. and 70% relative humidity
Description: as §3

[5] = higher treatment level, uptake 1136-1222 g.a.i./m3, control blocks lost 26-44%
[6] = lower treatment level, uptake 450-496 g.a.i./m3, control blocks lost 29-38%
[7] = higher treatment level, uptake 1271-1534 g.a.i./m3, control blocks lost 20-37%
[8] = lower treatment level, uptake 526-582 g.a.i./m3, control blocks lost 17-42%

CCOC(=O)c1ccc(C2=NOCC[S+]2[O-])cc1 (stereo not drawn) [Compound 22]
Score of bactericidal activity, E. Coli (Escherichia coli; 10 ppm in tryptose agar): 0
Score of bactericidal activity, E. Coli (Escherichia coli; 100 ppm in tryptose agar): 0
Score of bactericidal activity, S. albus (Streptomyces albus; 10 ppm in tryptose agar): 1
Score of bactericidal activity, S. albus (Streptomyces albus; 100 ppm in tryptose agar): 2
Score of bactericidal activity, P. alcalgenes (Pseudomonas alcaligenes): 1
Score of fungicidal activity, G. VERSICLOR (Coriolus versicolor [1]; 10 ppm): 2 (50% of growth compared to untreated control)
Score of bactericidal activity, B. cereus mycoides (Bacillus cereus mycoides; 10 ppm in tryptose agar): 2
Score of bactericidal activity, B. cereus mycoides (Bacillus cereus mycoides; 100 ppm in tryptose agar): 2
Score of fungicidal activity, CL RESINAE (Cladosporium resinae; 10 ppm, Table 6B): 4
Score of fungicidal activity, C. PUTEANA (Coniophora puteana [2]; 1 ppm, Table 6B): 3 (75% of growth compared to untreated control)
Score of fungicidal activity, C. PUTEANA (Coniophora puteana [2]; 10 ppm, Table 6B): 0

C[S+]1CCON=C1c1ccc(Cl)cc1 (stereo not drawn) [Compound 1]
Score of bactericidal activity, E. Coli (Escherichia coli; 100 ppm in tryptose agar): 2
Score of bactericidal activity, S. albus (Streptomyces albus; 100 ppm in tryptose agar): 2
Score of bactericidal activity, P. alcalgenes (Pseudomonas alcaligenes): 1
Score of fungicidal activity, C. VERSICLOR (Coriolus versicolor [1]): 0
Score of bactericidal activity, B. cereus mycoides (Bacillus cereus mycoides; 10 ppm in tryptose agar): 2
Score of bactericidal activity, B. cereus mycoides (Bacillus cereus mycoides; 100 ppm in tryptose agar): 2
Score of fungicidal activity, CL RESINAE (Cladosporium resinae; Test dosage 10 ppm, Table 6A): 2 (50% of growth compared to untreated control)
Score of fungicidal activity, C. PUTEANA (Coniophora puteana [2]; Test dosage 10 ppm, Table 6A): 2 (50% of growth compared to untreated control)

[O-][S+]1CCON=C1c1ccc(Cl)c(Cl)c1 (stereo not drawn) [Compound 4]
Score of bactericidal activity, E. Coli (Escherichia coli; 100 ppm in tryptose agar): 2
Score of bactericidal activity, S. albus (Streptomyces albus; 100 ppm in tryptose agar): 2
Score of bactericidal activity, P. alcalgenes (Pseudomonas alcaligenes): 1
Score of fungicidal activity, C. VERSICLOR (Coriolus versicolor [1]): 0
% weight loss, treated blocks (Coriolus) (Coriolus versicolor [3]; [5]): 35%
% weight loss, treated blocks (Coriolus) (Coriolus versicolor [3]; [6]): 35%
% weight loss, treated blocks (Coniophora) (Coniophora puteana [4]; [7]): 0.3%
% weight loss, treated blocks (Coniophora) (Coniophora puteana [4]; [8]): 0.3%
Score of bactericidal activity, B. cereus mycoides (Bacillus cereus mycoides; 10 ppm in tryptose agar): 2
Score of bactericidal activity, B. cereus mycoides (Bacillus cereus mycoides; 100 ppm in tryptose agar): 2
Score of fungicidal activity, CL RESINAE (Cladosporium resinae; Test dosage 10 ppm, Table 6A): 0
Score of fungicidal activity, C. PUTEANA (Coniophora puteana [2]; Test dosage 10 ppm, Table 6A): 0

CC(=O)c1ccc(C2=NOCC[S+]2[O-])cc1 (stereo not drawn) [Compound 14]
Score of bactericidal activity, E. Coli (Escherichia coli; 100 ppm in tryptose agar): 2
Score of bactericidal activity, S. albus (Streptomyces albus; 100 ppm in tryptose agar): 2
Score of bactericidal activity, P. alcalgenes (Pseudomonas alcaligenes): 1
Score of fungicidal activity, C. VERSICLOR (Coriolus versicolor [1]): 2 (50% of growth compared to untreated control)
Score of bactericidal activity, B. cereus mycoides (Bacillus cereus mycoides; 10 ppm in tryptose agar): 2
Score of bactericidal activity, B. cereus mycoides (Bacillus cereus mycoides; 100 ppm in tryptose agar): 2
Score of fungicidal activity, CL RESINAE (Cladosporium resinae; Test dosage 10 ppm, Table 6A): 0
Score of fungicidal activity, C. PUTEANA (Coniophora puteana [2]; Test dosage 10 ppm, Table 6A): 3 (75% of growth compared to untreated control)

CCOc1ccc(C2=NOCC[S+]2C)cc1 (stereo not drawn) [Compound 28]
Score of bactericidal activity, E. Coli (Escherichia coli; 10 ppm in tryptose agar): 0
Score of bactericidal activity, E. Coli (Escherichia coli; 100 ppm in tryptose agar): 0
Score of bactericidal activity, S. albus (Streptomyces albus; 10 ppm in tryptose agar): 1
Score of bactericidal activity, S. albus (Streptomyces albus; 100 ppm in tryptose agar): 2
Score of bactericidal activity, P. alcalgenes (Pseudomonas alcaligenes): 0
Score of fungicidal activity, G. VERSICLOR (Coriolus versicolor [1]; 10 ppm): 3 (75% of growth compared to untreated control)
Score of bactericidal activity, B. cereus mycoides (Bacillus cereus mycoides; 10 ppm in tryptose agar): 1
Score of bactericidal activity, B. cereus mycoides (Bacillus cereus mycoides; 100 ppm in tryptose agar): 2
Score of fungicidal activity, CL RESINAE (Cladosporium resinae; 10 ppm, Table 6B): 4
Score of fungicidal activity, C. PUTEANA (Coniophora puteana [2]; 10 ppm, Table 6B): 0

C[S+]1CCON=C1c1cc(Cl)cc(Cl)c1 (stereo not drawn) [Compound 19]
Score of bactericidal activity, E. Coli (Escherichia coli; 10 ppm in tryptose agar): 0
Score of bactericidal activity, E. Coli (Escherichia coli; 100 ppm in tryptose agar): 0
Score of bactericidal activity, S. albus (Streptomyces albus; 10 ppm in tryptose agar): 0
Score of bactericidal activity, S. albus (Streptomyces albus; 100 ppm in tryptose agar): 2
Score of bactericidal activity, P. alcalgenes (Pseudomonas alcaligenes): 0
Score of fungicidal activity, G. VERSICLOR (Coriolus versicolor [1]; 1 ppm): 2 (50% of growth compared to untreated control)
Score of fungicidal activity, G. VERSICLOR (Coriolus versicolor [1]; 10 ppm): 0
% weight loss, treated blocks (Coriolus) (Coriolus versicolor [3]; [5]): 87%
% weight loss, treated blocks (Coriolus) (Coriolus versicolor [3]; [6]): 35%
% weight loss, treated blocks (Coniophora) (Coniophora puteana [4]; [7]): −0.3%
% weight loss, treated blocks (Coniophora) (Coniophora puteana [4]; [8]): 0.9%
Score of bactericidal activity, B. cereus mycoides (Bacillus cereus mycoides; 10 ppm in tryptose agar): 0
Score of bactericidal activity, B. cereus mycoides (Bacillus cereus mycoides; 100 ppm in tryptose agar): 2
Score of fungicidal activity, CL RESINAE (Cladosporium resinae; 10 ppm, Table 6B): 0
Score of fungicidal activity, C. PUTEANA (Coniophora puteana [2]; 10 ppm, Table 6B): 3 (75% of growth compared to untreated control)

[O-][S+]1CCON=C1c1cccs1 (stereo not drawn) [Compound 8]
Score of bactericidal activity, E. Coli (Escherichia coli; 100 ppm in tryptose agar): 2
Score of bactericidal activity, S. albus (Streptomyces albus; 100 ppm in tryptose agar): 2
Score of bactericidal activity, P. alcalgenes (Pseudomonas alcaligenes): 2
Score of fungicidal activity, C. VERSICLOR (Coriolus versicolor [1]): 0
% weight loss, treated blocks (Coriolus) (Coriolus versicolor [3]; [5]): 3.5%
% weight loss, treated blocks (Coriolus) (Coriolus versicolor [3]; [6]): 24%
% weight loss, treated blocks (Coniophora) (Coniophora puteana [4]; [7]): 0.7%
% weight loss, treated blocks (Coniophora) (Coniophora puteana [4]; [8]): 0.9%
Score of bactericidal activity, B. cereus mycoides (Bacillus cereus mycoides; 10 ppm in tryptose agar): 0
Score of bactericidal activity, B. cereus mycoides (Bacillus cereus mycoides; 100 ppm in tryptose agar): 2
Score of fungicidal activity, CL RESINAE (Cladosporium resinae; Test dosage 10 ppm, Table 6A): 2 (50% of growth compared to untreated control)
Score of fungicidal activity, C. PUTEANA (Coniophora puteana [2]; Test dosage 10 ppm, Table 6A): 2 (50% of growth compared to untreated control)

C[S+]1CCON=C1c1ccc(C(F)(F)F)cc1 (stereo not drawn) [Compound 25]
Score of bactericidal activity, E. Coli (Escherichia coli; 10 ppm in tryptose agar): 0
Score of bactericidal activity, E. Coli (Escherichia coli; 100 ppm in tryptose agar): 0
Score of bactericidal activity, S. albus (Streptomyces albus; 10 ppm in tryptose agar): 2
Score of bactericidal activity, S. albus (Streptomyces albus; 100 ppm in tryptose agar): 2
Score of bactericidal activity, P. alcalgenes (Pseudomonas alcaligenes): 1
Score of fungicidal activity, G. VERSICLOR (Coriolus versicolor [1]; 1 ppm): 3 (75% of growth compared to untreated control)
Score of fungicidal activity, G. VERSICLOR (Coriolus versicolor [1]; 10 ppm): 0
% weight loss, treated blocks (Coriolus) (Coriolus versicolor [3]; [5]): 21%
% weight loss, treated blocks (Coriolus) (Coriolus versicolor [3]; [6]): 37%
% weight loss, treated blocks (Coniophora) (Coniophora puteana [4]; [7]): −0.8%
% weight loss, treated blocks (Coniophora) (Coniophora puteana [4]; [8]): −0.7%
Score of bactericidal activity, B. cereus mycoides (Bacillus cereus mycoides; 10 ppm in tryptose agar): 2
Score of bactericidal activity, B. cereus mycoides (Bacillus cereus mycoides; 100 ppm in tryptose agar): 2
Score of fungicidal activity, CL RESINAE (Cladosporium resinae; 10 ppm, Table 6B): 0
Score of fungicidal activity, C. PUTEANA (Coniophora puteana [2]; 1 ppm, Table 6B): 2 (50% of growth compared to untreated control)
Score of fungicidal activity, C. PUTEANA (Coniophora puteana [2]; 10 ppm, Table 6B): 0

COC(=O)c1cccc(C2=NOCC[S+]2[O-])c1 (stereo not drawn) [Compound 26]
Score of bactericidal activity, E. Coli (Escherichia coli; 10 ppm in tryptose agar): 0
Score of bactericidal activity, E. Coli (Escherichia coli; 100 ppm in tryptose agar): 0
Score of bactericidal activity, S. albus (Streptomyces albus; 10 ppm in tryptose agar): 0
Score of bactericidal activity, S. albus (Streptomyces albus; 100 ppm in tryptose agar): 2
Score of bactericidal activity, P. alcalgenes (Pseudomonas alcaligenes): 0
Score of fungicidal activity, G. VERSICLOR (Coriolus versicolor [1]; 10 ppm): 4
Score of bactericidal activity, B. cereus mycoides (Bacillus cereus mycoides; 10 ppm in tryptose agar): 2
Score of bactericidal activity, B. cereus mycoides (Bacillus cereus mycoides; 100 ppm in tryptose agar): 2
Score of fungicidal activity, CL RESINAE (Cladosporium resinae; 10 ppm, Table 6B): 4
Score of fungicidal activity, C. PUTEANA (Coniophora puteana [2]; 10 ppm, Table 6B): 4
